In patent US7745377B2, “Labeled peptides, proteins and antibodies and processes and intermediates useful for their preparation” (priority 2000, dated 2010):

Key:
[1] = Spectral data of merocyanine dyes (absorbance and fluorescence spectra); type: physicochemical; set-up: Absorption Maximum / Emission Maximum: unit not given here; details: n-butanol
Description: Absorbance spectra were recorded on Hewlett-Packard HP8452 diode array spectrophotometer and fluorescence spectra were recorded on SPEX Fluorolog 2 spectrometer.

[2] = target: T1, cdc42 (Homo sapiens, UniProt P60953); assay: Fluorescence of mero-CBD solvatochromic activation indicator with cdc42; type: binding; details: for increase of fluorescence intensity on binding activated cdc42: cdc42-GTPγS, excitation and emission maxima
T1 construct: 6His; made in house
Description: (§1) Analyses of the solvatochromic activation indicator—A solution of mero-CBD (300 nM) in assay buffer was mixed 1:1 (v/v) with solutions of cdc42 (concentration as indicated), pre-equilibrated with 10 mM GDP or GTPγS as described in Knaus, U. G., Heyworth, P. G., Kinsella, B. T., Curnutte, J. T., and Bokoch, G. M. (1992) J. Biol. Chem. 267, 23575-23582. Emission wavelength of 630 nm and excitation wavelength of 600 nm were used to acquire excitation and emission spectra, respectively. For nucleotide dependence, cdc42 (500 nM) was pre-incubated with varying concentrations of GTPγS (1 to 500 nM). Rac1 and RhoA GTPases were pre-equilibrated with GTP […]S in the same manner.
(§2) Fluorescence increase as a measure of CBD-cdc42 interaction—The functionality and specificity of mero-CBD was characterized by measuring fluorescence in the presence of saturating amounts of cdc42-GDP or cdc42-GTPγS. […] Negligible increase (<5%) was also observed in the presence of activated Rac1. No effect on the mero-CBD fluorescence was observed when RhoA-GTPγS was present. Furthermore, even in the presence of excess of activated Rac1 and RhoA, GDP- and GTPγS-bound forms of cdc42 were easily distinguished by CBD-A4C fluorescence (data not shown).

[3] = target: T2, Rac1 (Homo sapiens, UniProt P63000); assay: Fluorescence of mero-CBD with activated Rac1; type: binding; details: Rac1 pre-equilibrated with GTPγS
T2 construct: 6His; made in house
Description: as §1, §2

[4] = target: T3, RhoA (Homo sapiens, UniProt P61586); assay: Fluorescence of mero-CBD with RhoA-GTPγS; type: binding; details: RhoA-GTPγS present
T3 construct: 6His; made in house
Description: as §1, §2

T1 sequence (P60953 whole entry, species assumed): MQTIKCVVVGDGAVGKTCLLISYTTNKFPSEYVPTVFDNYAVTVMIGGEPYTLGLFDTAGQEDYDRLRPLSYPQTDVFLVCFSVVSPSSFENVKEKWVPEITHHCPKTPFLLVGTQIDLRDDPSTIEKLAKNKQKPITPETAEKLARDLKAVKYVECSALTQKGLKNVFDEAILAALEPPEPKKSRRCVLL
T3 sequence (P61586 whole entry, species assumed): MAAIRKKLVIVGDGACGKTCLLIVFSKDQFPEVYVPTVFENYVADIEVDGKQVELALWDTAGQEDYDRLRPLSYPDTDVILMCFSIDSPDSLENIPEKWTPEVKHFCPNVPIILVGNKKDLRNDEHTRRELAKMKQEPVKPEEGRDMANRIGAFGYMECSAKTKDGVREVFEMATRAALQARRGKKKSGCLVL

Molecule: O=C1/C(=C/C=C/C=C2/Sc3ccccc3N2CCCS(=O)(=O)[O-])S(=O)(=O)c2ccccc21.[Na+] [Compound 2]
- Absorption Maximum [1]: 603
- Emission Maximum [1]: 623
- Extinction coefficient (*10^−3) [1]: 100
- Quantum Yield [1]: 0.10

Molecule: CC1(C)/C(=C/C=C/C=C2/C(=O)c3ccccc3S2(=O)=O)N(CCCS(=O)(=O)[O-])c2ccccc21.[Na+] [Compound 3]
- Extinction coefficient (*10^−3) [1]: 120
- Quantum Yield [1]: 0.17

Molecule: CC1(C)/C(=C/C=C/C=C2/C(=O)c3ccccc3C2=C(C#N)C#N)N(CCCS(=O)(=O)[O-])c2ccccc21.[Na+] [Compound 4]
- Extinction coefficient (*10^−3) [1]: 80
- Quantum Yield [1]: 0.10

B1: mero-CBD: cdc42 binding domain of WASP (amino acids 201 to 321) conjugated to the merocyanine dye shown in FIG. 11 (conjugate)
chain: DIQNPDITSSRYRGLPAPGPSPADKKRSGKKKISKADIGAPSGFKHVSHVGWDPQNGFDVNNLDPDLRSLCSRAGISEAQLTDAETSKLIYDFIEDQGGLEAVRQEMRRQEPLPPPPPPSHHHHHH
- increase of fluorescence intensity on binding activated cdc42 [2]: Approximately 3.5 fold
- increase of fluorescence intensity on binding activated cdc42 ([2]; listed as CBD biosensor): up to 3.5 fold
- fluorescence increase in presence of cdc42-GDP ([2]; saturating cdc42-GDP): not cdc42-GDP
- fluorescence increase in presence of activated Rac1 [3]: < 5%
- effect on mero-CBD fluorescence of RhoA-GTPγS [4]: No effect
